Data taken from ChEMBL document CHEMBL3414487, “Synthesis and biological activity of salinomycin conjugates with floxuridine” (Eur J Med Chem, 2015).
Values after ≈ are worked out from the molar mass of the structure shown.

Legend:
[1] = Antiproliferative activity against human HL60 cells assessed as growth inhibition after 72 hrs by MTT assay; type: functional, cell-based; settings: HL-60, 72 h
[2] = Antiproliferative activity against human vincristine-resistant HL60/Vinc cells assessed as growth inhibition after 72 hrs by MTT assay; type: functional
LoVo [3] = assay: Antiproliferative activity against human LoVo cells assessed as growth inhibition after 72 hrs by SRB method; type: functional, cell-based; settings: Homo sapiens, LoVo, 72 h
[4] = Antiproliferative activity against human doxorubicin-resistant LoVo/DX cells assessed as growth inhibition after 72 hrs by SRB method; type: functional, cell-based
HT-29 [5] = assay: Antiproliferative activity against human HT-29 cells assessed as growth inhibition after 72 hrs by SRB method; type: functional, cell-based; settings: Homo sapiens, HT-29, 72 h
[6] = Antiproliferative activity against human LS180 cells assessed as growth inhibition after 72 hrs by SRB method; type: functional, cell-based; settings: Homo sapiens, LS180, 72 h
[7] = Antiproliferative activity against human SW707 cells assessed as growth inhibition after 72 hrs by SRB method; type: functional, cell-based; settings: Homo sapiens, SW707, 72 h
BALB/3T3 = assay: Antiproliferative activity against mouse BALB/3T3 cells assessed as growth inhibition after 72 hrs by SRB method; type: cell-based; settings: BALB/3T3, 72 h
HL-60 [8] = assay: Selectivity index, ratio of IC50 for mouse BALB/3T3 cells to IC50 for human HL60 cells; type: functional
LoVo [9] = assay: Selectivity index, ratio of IC50 for mouse BALB/3T3 cells to IC50 for human LoVo cells; type: functional
[10] = Selectivity index, ratio of IC50 for mouse BALB/3T3 cells to IC50 for human LoVo/DX cells; type: functional
HT-29 [11] = assay: Selectivity index, ratio of IC50 for mouse BALB/3T3 cells to IC50 for human HT-29 cells; type: functional
[12] = Selectivity index, ratio of IC50 for mouse BALB/3T3 cells to IC50 for human LS180 cells; type: functional
[13] = Selectivity index, ratio of IC50 for mouse BALB/3T3 cells to IC50 for human SW707 cells; type: functional
LoVo [14] = assay: Resistance index, ratio of IC50 for human LoVo/DX cells to IC50 for human LoVo cells
Staphylococcus aureus [15] = assay: Antimicrobial activity against Staphylococcus aureus […] 4163 after 18 hrs by two-fold serial microdilution method; type: functional
Staphylococcus aureus [16] = assay: Antimicrobial activity against Staphylococcus aureus ATCC 25923 after 18 hrs by two-fold serial microdilution method; type: functional; settings: ATCC 25923, 18 h
Staphylococcus aureus [17] = assay: Antimicrobial activity against Staphylococcus aureus ATCC 6538 after 18 hrs by two-fold serial microdilution method; type: functional; settings: ATCC 6538, 18 h
Staphylococcus aureus [18] = assay: Antimicrobial activity against Staphylococcus aureus ATCC 29213 after 18 hrs by two-fold serial microdilution method; type: functional; settings: ATCC 29213, 18 h
[19] = system: Staphylococcus epidermidis; assay: Antimicrobial activity against Staphylococcus epidermidis ATCC 12228 after 18 hrs by two-fold serial microdilution method; type: functional; settings: ATCC 12228, 18 h
[20] = system: Staphylococcus epidermidis; assay: Antimicrobial activity against Staphylococcus epidermidis ATCC 35984 after 18 hrs by two-fold serial microdilution method; type: functional; settings: ATCC 35984, 18 h
Staphylococcus aureus [21] = assay: Antimicrobial activity against methicillin-resistant Staphylococcus aureus 452/11 after 18 hrs by two-fold serial microdilution method; type: functional; settings: 452/11, 18 h
Staphylococcus aureus [22] = assay: Antimicrobial activity against methicillin-resistant Staphylococcus aureus 456/11 after 18 hrs by two-fold serial microdilution method; type: functional; settings: 456/11, 18 h
Staphylococcus aureus [23] = assay: Antimicrobial activity against methicillin-resistant Staphylococcus aureus 462/11 after 18 hrs by two-fold serial microdilution method; type: functional; settings: 462/11, 18 h
Staphylococcus aureus [24] = assay: Antimicrobial activity against methicillin-resistant Staphylococcus aureus 514/11 after 18 hrs by two-fold serial microdilution method; type: functional; settings: 514/11, 18 h
Staphylococcus aureus [25] = assay: Antimicrobial activity against methicillin-resistant Staphylococcus aureus 522/12 after 18 hrs by two-fold serial microdilution method; type: functional; settings: 522/12, 18 h
Staphylococcus aureus [26] = assay: Antimicrobial activity against methicillin-resistant Staphylococcus aureus 537/12 after 18 hrs by two-fold serial microdilution method; type: functional; settings: 537/12, 18 h
Staphylococcus aureus [27] = assay: Antimicrobial activity against methicillin-resistant Staphylococcus aureus 572/12 after 18 hrs by two-fold serial microdilution method; type: functional; settings: 572/12, 18 h
Staphylococcus aureus [28] = assay: Antimicrobial activity against methicillin-resistant Staphylococcus aureus 573/12 after 18 hrs by two-fold serial microdilution method; type: functional; settings: 573/12, 18 h
Staphylococcus aureus [29] = assay: Antimicrobial activity against methicillin-resistant Staphylococcus aureus 585/12 after 18 hrs by two-fold serial microdilution method; type: functional; settings: 585/12, 18 h
Staphylococcus aureus [30] = assay: Antimicrobial activity against methicillin-resistant Staphylococcus aureus 586/12 after 18 hrs by two-fold serial microdilution method; type: functional; settings: 586/12, 18 h
[31] = system: Staphylococcus epidermidis; assay: Antimicrobial activity against methicillin-resistant Staphylococcus epidermidis 459/11 after 18 hrs by two-fold serial microdilution method; type: functional; settings: 459/11, 18 h
[32] = system: Staphylococcus epidermidis; assay: Antimicrobial activity against methicillin-resistant Staphylococcus epidermidis 460/11 after 18 hrs by two-fold serial microdilution method; type: functional; settings: 460/11, 18 h
[33] = system: Staphylococcus epidermidis; assay: Antimicrobial activity against methicillin-resistant Staphylococcus epidermidis 461/11 after 18 hrs by two-fold serial microdilution method; type: functional; settings: 461/11, 18 h
[34] = system: Staphylococcus epidermidis; assay: Antimicrobial activity against methicillin-resistant Staphylococcus epidermidis 466/11 after 18 hrs by two-fold serial microdilution method; type: functional; settings: 466/11, 18 h
[35] = system: Staphylococcus epidermidis; assay: Antimicrobial activity against methicillin-resistant Staphylococcus epidermidis 467/11 after 18 hrs by two-fold serial microdilution method; type: functional; settings: 467/11, 18 h
[36] = system: Staphylococcus epidermidis; assay: Antimicrobial activity against methicillin-resistant Staphylococcus epidermidis 468/11 after 18 hrs by two-fold serial microdilution method; type: functional; settings: 468/11, 18 h
[37] = system: Staphylococcus epidermidis; assay: Antimicrobial activity against methicillin-resistant Staphylococcus epidermidis 469/11 after 18 hrs by two-fold serial microdilution method; type: functional; settings: 469/11, 18 h
[38] = system: Staphylococcus epidermidis; assay: Antimicrobial activity against methicillin-resistant Staphylococcus epidermidis 470/11 after 18 hrs by two-fold serial microdilution method; type: functional; settings: 470/11, 18 h
[39] = system: Staphylococcus epidermidis; assay: Antimicrobial activity against methicillin-resistant Staphylococcus epidermidis 488/11 after 18 hrs by two-fold serial microdilution method; type: functional; settings: 488/11, 18 h
[40] = system: Staphylococcus epidermidis; assay: Antimicrobial activity against methicillin-resistant Staphylococcus epidermidis 489/11 after 18 hrs by two-fold serial microdilution method; type: functional; settings: 489/11, 18 h
[41] = Selectivity index, ratio of IC50 for mouse BALB/3T3 cells to IC50 for human HL60/Vinc cells; type: functional
HL-60 [42] = assay: Resistance index, ratio of IC50 for human HL60/Vinc cells to IC50 for human HL60 cells

With `CC[C@@H](C(=O)[C@@H](C)[C@@H](O)[C@H](C)[C@@H]1O[C@@H]([C@@H](CC)C(=O)NCc2cn([C@H]3C[C@H](n4cc(F)c(=O)[nH]c4=O)O[C@@H]3CO)nn2)CC[C@@H]1C)[C@H]1O[C@]2(C=C[C@@H](O)[C@]3(CC[C@@](C)([C@H]4CC[C@](O)(CC)[C@H](C)O4)O3)O2)[C@H](C)C[C@@H]1C` the IC50 [1] was 28.7 µM, the “inhibition (INH)” value [2] was 20% and the IC50 (LoVo [3]) was 41.2 µM. For the same molecule, the IC50 [4] was 70.4 µM, the IC50 (HT-29 [5]) was 30.1 µM and the IC50 [6] was 32.8 µM. The IC50 [7] was 35 µM, the IC50 (BALB/3T3) was 29.6 µM and the “Selectivity Index” value (HL-60 [8]) was 1.03. For the same molecule, the “Selectivity Index” value (LoVo [9]) was 0.72, the “Selectivity Index” value [10] was 0.42 and the “Selectivity Index” value (HT-29 [11]) was 0.98. The “Selectivity Index” value [12] was 0.9, the “Selectivity Index” value [13] was 0.85 and the “Ratio IC50” value (LoVo [14]) was 1.71. It also gave an MIC (Staphylococcus aureus [15]) of 30.2 µM (≈ 32 µg/mL), an MIC (Staphylococcus aureus [16]) of 30.2 µM (≈ 32 µg/mL) and an MIC (Staphylococcus aureus [17]) of 30.2 µM (≈ 32 µg/mL). It also gave an MIC (Staphylococcus aureus [18]) of 60.4 µM (≈ 64 µg/mL), an MIC [19] of 30.2 µM (≈ 32 µg/mL) and an MIC [20] of 30.2 µM (≈ 32 µg/mL). The MIC (Staphylococcus aureus [21]) was 60.4 µM (≈ 64 µg/mL), the MIC (Staphylococcus aureus [22]) was 60.4 µM (≈ 64 µg/mL) and the MIC (Staphylococcus aureus [23]) was 60.4 µM (≈ 64 µg/mL). For the same molecule, the MIC (Staphylococcus aureus [24]) was 242 µM (≈ 256 µg/mL), the MIC (Staphylococcus aureus [25]) was 242 µM (≈ 256 µg/mL) and the MIC (Staphylococcus aureus [26]) was 242 µM (≈ 256 µg/mL). It also gave an MIC (Staphylococcus aureus [27]) of 242 µM (≈ 256 µg/mL), an MIC (Staphylococcus aureus [28]) of 60.4 µM (≈ 64 µg/mL) and an MIC (Staphylococcus aureus [29]) of 121 µM (≈ 128 µg/mL). It also gave an MIC (Staphylococcus aureus [30]) of 121 µM (≈ 128 µg/mL), an MIC [31] of 30.2 µM (≈ 32 µg/mL) and an MIC [32] of 30.2 µM (≈ 32 µg/mL). It also gave an MIC [33] of 30.2 µM (≈ 32 µg/mL), an MIC [34] of 30.2 µM (≈ 32 µg/mL) and an MIC [35] of 60.4 µM (≈ 64 µg/mL). The MIC [36] was 60.4 µM (≈ 64 µg/mL), the MIC [37] was 60.4 µM (≈ 64 µg/mL) and the MIC [38] was 30.2 µM (≈ 32 µg/mL). The MIC [39] was 121 µM (≈ 128 µg/mL) and the MIC [40] was 30.2 µM (≈ 32 µg/mL).

Work on `CC[C@@H](C(=O)[C@@H](C)[C@@H](O)[C@H](C)[C@@H]1O[C@@H]([C@@H](CC)C(=O)OC[C@H]2O[C@@H](n3cc(F)c(=O)[nH]c3=O)C[C@@H]2O)CC[C@@H]1C)[C@H]1O[C@]2(C=C[C@@H](O)[C@]3(CC[C@@](C)([C@H]4CC[C@](O)(CC)[C@H](C)O4)O3)O2)[C@H](C)C[C@@H]1C` yielded an IC50 [1] of 0.37 µM, an IC50 ([2]; Homo sapiens, HL60/vinc, 72 h) of 2.82 µM and an IC50 (LoVo [3]) of 1.46 µM. For the same molecule, the IC50 [4] was 0.93 µM, the IC50 (HT-29 [5]) was 2.02 µM and the IC50 [6] was 2.25 µM. The IC50 [7] was 1.99 µM, the IC50 (BALB/3T3) was 32.3 µM and the “Selectivity Index” value (HL-60 [8]) was 87.24. The “Selectivity Index” value [41] was 11.45, the “Selectivity Index” value (LoVo [9]) was 22.11 and the “Selectivity Index” value [10] was 34.71. The “Selectivity Index” value (HT-29 [11]) was 15.98, the “Selectivity Index” value [12] was 14.35 and the “Selectivity Index” value [13] was 16.22. The “Ratio IC50” value (HL-60 [42]) was 7.62, the “Ratio IC50” value (LoVo [14]) was 0.64 and the MIC (Staphylococcus aureus [15]) was 8.17 µM (≈ 8 µg/mL). The MIC (Staphylococcus aureus [16]) was 8.17 µM (≈ 8 µg/mL), the MIC (Staphylococcus aureus [17]) was 4.09 µM (≈ 4 µg/mL) and the MIC (Staphylococcus aureus [18]) was 4.09 µM (≈ 4 µg/mL). For the same molecule, the MIC [19] was 4.09 µM (≈ 4 µg/mL), the MIC [20] was 4.09 µM (≈ 4 µg/mL) and the MIC (Staphylococcus aureus [21]) was 32.7 µM (≈ 32 µg/mL). It also gave an MIC (Staphylococcus aureus [22]) of 32.7 µM (≈ 32 µg/mL), an MIC (Staphylococcus aureus [23]) of 32.7 µM (≈ 32 µg/mL) and an MIC (Staphylococcus aureus [24]) of 8.17 µM (≈ 8 µg/mL). The MIC (Staphylococcus aureus [25]) was 8.17 µM (≈ 8 µg/mL), the MIC (Staphylococcus aureus [26]) was 8.17 µM (≈ 8 µg/mL) and the MIC (Staphylococcus aureus [27]) was 8.17 µM (≈ 8 µg/mL). The MIC (Staphylococcus aureus [28]) was 8.17 µM (≈ 8 µg/mL), the MIC (Staphylococcus aureus [29]) was 16.3 µM (≈ 16 µg/mL) and the MIC (Staphylococcus aureus [30]) was 8.17 µM (≈ 8 µg/mL). For the same molecule, the MIC [31] was 32.7 µM (≈ 32 µg/mL), the MIC [32] was 32.7 µM (≈ 32 µg/mL) and the MIC [33] was 32.7 µM (≈ 32 µg/mL). It also gave an MIC [34] of 32.7 µM (≈ 32 µg/mL), an MIC [35] of 32.7 µM (≈ 32 µg/mL) and an MIC [36] of 32.7 µM (≈ 32 µg/mL). It also gave an MIC [37] of 32.7 µM (≈ 32 µg/mL), an MIC [38] of 8.17 µM (≈ 8 µg/mL) and an MIC [39] of 32.7 µM (≈ 32 µg/mL). The MIC [40] was 8.17 µM (≈ 8 µg/mL).
